This passage reports IC50 results from patent US12258328B2, “6-membered heteroaryl-containing aminopyridine compounds as EGFR inhibitors” (YUHAN CORPORATION, priority 2021, dated 2025).

One test concerns the target EGFR wildtype (Homo sapiens, UniProt P00533). As to the kind of experiment: Biochemical EGFR kinase assay (Lance Ultra TR-FRET), wildtype. The procedure:
(§1) Biochemical EGFR kinase assays were conducted using Lance Ultra time-resolved fluorescence resonance energy transfer (TR-FRET) technology from Perkin-Elmer. Compounds of the invention were initially diluted to 20 mM in 100% DMSO for storage and made into kinase buffer solution to create a compound concentration ranging from 0.003 μM and 10 μM.
(§2) Each kinase reactions were incubated at room temperature for 1 hour and then stopped by the addition of 4 μL of stop solution (10 mM EDTA). The specific Europium-labeled-anti-phosphopeptide antibody (PerkinElmer, AD0069) diluted in LANCE detection buffer was then added to a final concentration of 2 nM. After 60 minutes incubation at room temperature the LANCE signal was measured on an EnVision Multilabel Reader (Perkin-Elmer). Excitation wavelength was set at 320 nm and emission monitored at 615 nm (donor) and 665 nm (acceptor). The IC50 values were determined using GraphPad prism software (GraphPad Software, Inc., San Diego, CA, USA).
(In TR-FRET formats the signal depends on donor and acceptor labels being close together.)

A further test has as its target EGFR L858R/C797S (Homo sapiens, UniProt P00533, C797S/L858R). As to the kind of experiment: Biochemical EGFR kinase assay (Lance Ultra TR-FRET), double mutant L858R/C797S. The procedure:
as §1, §2

In another test the target is EGFR L858R/T790M/C797S (Homo sapiens, UniProt P00533, C797S/L858R/T790M). The experiment in a line: Biochemical EGFR kinase assay (Lance Ultra TR-FRET), triple mutant L858R/T790M/C797S. Here is the method: as §1, §2
The next test addresses EGFR del19/T790M/C797S (Homo sapiens, UniProt P00533, C797S/DEL746-750/T790M). The experiment in a line: Biochemical EGFR kinase assay (Lance Ultra TR-FRET), triple mutant del19/T790M/C797S. The procedure:
as §1, §2

In the next test the target is EGFR del19/C797S (Homo sapiens, UniProt P00533, C797S/DEL746-750). As to the kind of experiment: Biochemical EGFR kinase assay (Lance Ultra TR-FRET), double mutant del19/C797S. Here is the method:
as §1, §2

[1] abbreviates: IC50 WT (nM) 100 μM ATP, 100 μM ATP.
Where [2] appears, read: Km ATP, read-out: IC50 WT (nM) Km ATP.
Setting [3] is: IC50 L858R/C797S (nM) 100 μM ATP, 100 μM ATP.
The mark [4] stands for this setting: Km ATP, read-out: IC50 L858R/C797S (nM) Km ATP.
The mark [5] stands for this setting: IC50 L858R/T790M/C797S (nM) 100 μM ATP, 100 μM ATP.
[6] abbreviates: Km ATP, read-out: IC50 L858R/T790M/C797S (nM) Km ATP.
Where [7] appears, read: IC50 del19/T790M/C797S (nM) 100 μM ATP, 100 μM ATP.
Where [8] appears, read: IC50 del19/C797S (nM) 100 μM ATP, 100 μM ATP.
Where [9] appears, read: Km ATP, read-out: IC50 del19/C797S (nM) Km ATP.
[10] abbreviates: ATP at Km, read-out: IC50 WT, Km ATP.
The mark [11] stands for this setting: ATP at Km, read-out: IC50 L858R/C797S, Km ATP.
The mark [12] stands for this setting: ATP at Km, read-out: IC50 L858R/T790M/C797S, Km ATP.
The mark [13] stands for this setting: ATP at Km, read-out: IC50 del19/T790M/C797S, Km ATP.
Setting [14] is: ATP at Km, read-out: IC50 del19/C797S, Km ATP.
[15] abbreviates: IC50 del19/T790M/C797S, 100 μM ATP.
The mark [16] stands for this setting: IC50 L858R/T790M/C797S, 100 μM ATP.
[17] abbreviates: Km ATP, read-out: IC50 del19/T790M/C797S (nM) Km ATP.

Like-named read-outs stand apart in the source and are kept apart here.

EGFR wildtype, sequence (P00533 25-1210): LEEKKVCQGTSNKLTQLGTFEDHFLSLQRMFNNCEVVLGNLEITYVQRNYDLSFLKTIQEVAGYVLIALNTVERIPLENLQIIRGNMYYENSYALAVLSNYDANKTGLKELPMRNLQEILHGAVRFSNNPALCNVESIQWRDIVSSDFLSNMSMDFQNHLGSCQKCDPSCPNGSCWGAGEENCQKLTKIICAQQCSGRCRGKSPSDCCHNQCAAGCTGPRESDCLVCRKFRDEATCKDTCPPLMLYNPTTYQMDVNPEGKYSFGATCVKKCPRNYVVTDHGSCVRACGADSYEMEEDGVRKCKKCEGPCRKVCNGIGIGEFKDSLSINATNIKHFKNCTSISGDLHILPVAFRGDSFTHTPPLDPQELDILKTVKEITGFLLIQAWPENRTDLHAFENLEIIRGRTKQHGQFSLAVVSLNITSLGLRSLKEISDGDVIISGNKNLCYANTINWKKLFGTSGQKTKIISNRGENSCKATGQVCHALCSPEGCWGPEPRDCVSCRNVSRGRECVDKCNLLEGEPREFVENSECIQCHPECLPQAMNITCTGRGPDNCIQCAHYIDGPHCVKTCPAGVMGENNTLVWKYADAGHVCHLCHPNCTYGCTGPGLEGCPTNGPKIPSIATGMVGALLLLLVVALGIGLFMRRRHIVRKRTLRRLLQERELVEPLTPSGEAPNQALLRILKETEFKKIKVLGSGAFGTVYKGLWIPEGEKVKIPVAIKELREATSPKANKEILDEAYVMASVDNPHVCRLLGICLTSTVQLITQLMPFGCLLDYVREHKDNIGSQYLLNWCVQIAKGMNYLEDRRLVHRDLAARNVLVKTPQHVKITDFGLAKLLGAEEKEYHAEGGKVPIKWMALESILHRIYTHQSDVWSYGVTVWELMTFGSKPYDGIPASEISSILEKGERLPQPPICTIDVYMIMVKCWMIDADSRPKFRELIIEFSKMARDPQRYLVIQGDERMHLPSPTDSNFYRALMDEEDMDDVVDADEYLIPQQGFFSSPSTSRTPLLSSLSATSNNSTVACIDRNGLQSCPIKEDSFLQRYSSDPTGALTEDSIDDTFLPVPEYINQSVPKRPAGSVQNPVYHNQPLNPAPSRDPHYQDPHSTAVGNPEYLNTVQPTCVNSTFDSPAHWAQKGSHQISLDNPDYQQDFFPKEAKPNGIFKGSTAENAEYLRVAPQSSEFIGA
EGFR del19/C797S, sequence (P00533 with tags, fused parts or gaps DEL746-750/C797S): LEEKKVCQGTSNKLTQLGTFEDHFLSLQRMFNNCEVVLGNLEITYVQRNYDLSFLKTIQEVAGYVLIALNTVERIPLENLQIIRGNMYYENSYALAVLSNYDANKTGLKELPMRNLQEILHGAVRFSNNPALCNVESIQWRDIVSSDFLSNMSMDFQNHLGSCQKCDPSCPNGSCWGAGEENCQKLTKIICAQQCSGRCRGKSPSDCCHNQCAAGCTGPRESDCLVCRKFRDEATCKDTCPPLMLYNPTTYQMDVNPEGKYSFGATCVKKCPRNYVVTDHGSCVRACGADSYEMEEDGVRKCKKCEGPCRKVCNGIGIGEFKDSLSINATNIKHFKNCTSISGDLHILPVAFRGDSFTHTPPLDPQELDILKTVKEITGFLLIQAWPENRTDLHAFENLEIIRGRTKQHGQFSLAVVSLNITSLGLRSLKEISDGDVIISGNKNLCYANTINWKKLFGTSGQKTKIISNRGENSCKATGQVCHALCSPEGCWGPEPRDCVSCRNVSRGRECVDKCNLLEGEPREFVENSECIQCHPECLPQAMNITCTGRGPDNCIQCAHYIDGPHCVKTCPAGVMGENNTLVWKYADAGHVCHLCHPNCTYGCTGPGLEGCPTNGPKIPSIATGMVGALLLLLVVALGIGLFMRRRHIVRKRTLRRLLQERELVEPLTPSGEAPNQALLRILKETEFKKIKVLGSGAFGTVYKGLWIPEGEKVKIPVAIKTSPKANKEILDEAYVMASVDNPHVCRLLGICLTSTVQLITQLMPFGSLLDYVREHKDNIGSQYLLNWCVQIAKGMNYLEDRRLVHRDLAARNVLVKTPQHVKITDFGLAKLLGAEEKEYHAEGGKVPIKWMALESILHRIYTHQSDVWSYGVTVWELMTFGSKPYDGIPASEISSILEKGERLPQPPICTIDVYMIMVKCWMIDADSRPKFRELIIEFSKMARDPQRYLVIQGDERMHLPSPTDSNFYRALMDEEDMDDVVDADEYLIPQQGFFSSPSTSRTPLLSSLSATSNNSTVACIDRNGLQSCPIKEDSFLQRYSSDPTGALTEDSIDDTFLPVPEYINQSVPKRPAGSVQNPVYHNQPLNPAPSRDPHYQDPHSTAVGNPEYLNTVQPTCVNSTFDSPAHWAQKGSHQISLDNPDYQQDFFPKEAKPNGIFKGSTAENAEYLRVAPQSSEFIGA
EGFR L858R/T790M/C797S, sequence (P00533 25-1210 T790M/C797S/L858R): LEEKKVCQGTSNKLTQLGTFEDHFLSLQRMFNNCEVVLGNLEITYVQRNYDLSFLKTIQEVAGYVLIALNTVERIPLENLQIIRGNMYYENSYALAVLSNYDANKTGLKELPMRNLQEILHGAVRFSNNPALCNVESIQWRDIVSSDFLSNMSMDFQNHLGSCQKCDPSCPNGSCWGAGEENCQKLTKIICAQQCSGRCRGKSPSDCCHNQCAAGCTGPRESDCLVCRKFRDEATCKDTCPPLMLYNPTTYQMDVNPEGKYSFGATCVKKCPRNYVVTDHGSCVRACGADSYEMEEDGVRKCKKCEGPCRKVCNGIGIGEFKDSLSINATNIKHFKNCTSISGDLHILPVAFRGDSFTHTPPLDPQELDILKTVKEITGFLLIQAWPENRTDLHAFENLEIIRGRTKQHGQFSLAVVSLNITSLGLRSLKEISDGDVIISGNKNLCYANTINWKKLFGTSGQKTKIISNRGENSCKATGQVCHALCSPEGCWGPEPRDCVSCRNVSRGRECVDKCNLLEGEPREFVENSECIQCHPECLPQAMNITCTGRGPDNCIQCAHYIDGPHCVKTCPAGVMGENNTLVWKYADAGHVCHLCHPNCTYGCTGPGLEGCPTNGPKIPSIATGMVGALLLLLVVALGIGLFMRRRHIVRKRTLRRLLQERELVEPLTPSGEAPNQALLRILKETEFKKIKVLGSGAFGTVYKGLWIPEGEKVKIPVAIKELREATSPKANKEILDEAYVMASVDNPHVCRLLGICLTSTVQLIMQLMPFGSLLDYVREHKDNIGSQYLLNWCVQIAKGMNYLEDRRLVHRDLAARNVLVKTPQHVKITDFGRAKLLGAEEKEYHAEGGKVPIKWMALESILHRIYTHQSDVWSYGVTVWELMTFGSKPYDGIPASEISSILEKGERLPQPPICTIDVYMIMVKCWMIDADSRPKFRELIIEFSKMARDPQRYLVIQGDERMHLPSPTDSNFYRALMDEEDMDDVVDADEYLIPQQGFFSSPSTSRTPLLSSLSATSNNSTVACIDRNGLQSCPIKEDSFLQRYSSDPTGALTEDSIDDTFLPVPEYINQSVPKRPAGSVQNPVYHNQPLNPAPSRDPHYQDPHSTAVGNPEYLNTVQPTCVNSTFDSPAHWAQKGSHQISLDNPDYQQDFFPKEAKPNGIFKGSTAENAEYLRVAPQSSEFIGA
EGFR del19/T790M/C797S, sequence (P00533 with tags, fused parts or gaps DEL746-750/T790M/C797S): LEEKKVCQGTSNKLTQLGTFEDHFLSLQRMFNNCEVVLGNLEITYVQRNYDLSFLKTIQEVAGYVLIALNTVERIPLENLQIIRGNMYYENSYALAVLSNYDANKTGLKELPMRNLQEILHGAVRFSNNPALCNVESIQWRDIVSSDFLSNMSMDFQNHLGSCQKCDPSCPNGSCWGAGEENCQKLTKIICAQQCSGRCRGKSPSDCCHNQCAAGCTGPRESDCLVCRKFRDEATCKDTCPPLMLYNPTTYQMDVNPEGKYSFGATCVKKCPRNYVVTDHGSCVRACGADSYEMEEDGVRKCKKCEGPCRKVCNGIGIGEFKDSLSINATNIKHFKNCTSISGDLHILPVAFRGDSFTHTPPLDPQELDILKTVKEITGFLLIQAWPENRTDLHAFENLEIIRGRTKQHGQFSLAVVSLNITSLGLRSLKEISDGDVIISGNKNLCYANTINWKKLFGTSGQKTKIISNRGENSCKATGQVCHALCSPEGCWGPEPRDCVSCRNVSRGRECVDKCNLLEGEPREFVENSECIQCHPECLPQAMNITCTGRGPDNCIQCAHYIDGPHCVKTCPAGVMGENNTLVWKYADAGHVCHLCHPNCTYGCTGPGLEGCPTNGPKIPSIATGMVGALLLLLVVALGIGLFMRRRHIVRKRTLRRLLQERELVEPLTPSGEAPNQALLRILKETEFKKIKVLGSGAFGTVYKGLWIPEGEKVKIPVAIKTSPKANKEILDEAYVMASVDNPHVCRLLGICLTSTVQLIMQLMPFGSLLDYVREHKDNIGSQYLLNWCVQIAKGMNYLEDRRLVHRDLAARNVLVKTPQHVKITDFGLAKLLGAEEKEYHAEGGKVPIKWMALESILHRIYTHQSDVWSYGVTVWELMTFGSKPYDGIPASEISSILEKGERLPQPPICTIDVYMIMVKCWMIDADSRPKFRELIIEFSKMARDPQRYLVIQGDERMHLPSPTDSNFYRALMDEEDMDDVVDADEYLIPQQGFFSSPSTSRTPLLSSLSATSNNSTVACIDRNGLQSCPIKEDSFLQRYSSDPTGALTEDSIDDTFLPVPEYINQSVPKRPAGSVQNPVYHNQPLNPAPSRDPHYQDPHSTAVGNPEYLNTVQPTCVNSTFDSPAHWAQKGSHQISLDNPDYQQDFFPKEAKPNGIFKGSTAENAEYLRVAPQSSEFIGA

Regarding `CN1CCN(Cc2ccc(-c3cnc(Nc4ccnc(-c5cnn(S(=O)(=O)C6CC6)c5)n4)cc3N[C@H]3CC[C@](O)(CO)CC3)nc2)CC1` [Example 11, (1s,4s)-4-((6′-((2-(1-(Cyclopropylsulfonyl)-1H-pyrazol-4-yl)pyrimidin-4-yl)amino)-5-((4-methylpiperazin-1-yl)methyl)-[2,3′-bipyridin]-4′-yl)amino)-1-(hydroxymethyl)cyclohexan-1-ol], the IC50 against EGFR wildtype (setting [1]) is 586 nM; on EGFR wildtype (setting [2]), 1.4 nM; on EGFR L858R/C797S (setting [3]) it was 2.1 nM; on EGFR L858R/C797S (setting [4]), 0.4 nM; on EGFR L858R/T790M/C797S (setting [5]), 0.2 nM; at EGFR L858R/T790M/C797S (setting [6]) it was 0.1 nM. The results for the IC50 on EGFR del19/T790M/C797S (setting [7]), against EGFR del19/C797S (setting [8]) and on EGFR del19/C797S (setting [9]) were 0.1 nM, 0.4 nM and 0.2 nM, respectively.
Take `CC(C)(F)c1ccc(-c2cnc(Nc3ccnc(-c4cnn(S(=O)(=O)C5CC5)c4)n3)cc2NC2CCC(F)(F)CC2)nc1` [Example 240, N^6′-(2-(1-(Cyclopropylsulfonyl)-1H-pyrazol-4-yl)pyrimidin-4-yl)-N^4′-(4,4-difluorocyclohexyl)-5-(2-fluoropropan-2-yl)-[2,3′-bipyridine]-4′,6′-diamine]: the IC50 at EGFR wildtype (setting [10]) is 733 nM; at EGFR L858R/C797S (setting [11]), 15.4 nM; on EGFR L858R/T790M/C797S (setting [12]), 5.9 nM; on EGFR del19/T790M/C797S (setting [13]), 19.8 nM; on EGFR del19/C797S (setting [14]), 134 nM.
With `C[C@]1(O)CC[C@@H](Nc2nccc(-c3cnc(Nc4ccnc(-c5cnn(S(=O)(=O)C6CC6)c5)n4)cc3N[C@H]3CC[C@@](C)(O)CC3)n2)CC1` [Example 191, (1s,4s)-4-((4-(6-((2-(1-(Cyclopropylsulfonyl)-1H-pyrazol-4-yl)pyrimidin-4-yl)amino)-4-(((1s,4s)-4-hydroxy-4-methylcyclohexyl)amino)pyridin-3-yl)pyrimidin-2-yl)amino)-1-methylcyclohexan-1-ol], the IC50 on EGFR wildtype (setting [10]) is 27.4 nM; at EGFR wildtype (IC50 WT, 100 μM ATP) it was above 10000 nM; on EGFR L858R/C797S (setting [11]), 1.6 nM; against EGFR L858R/C797S (IC50 L858R/C797S, 100 μM ATP), 26.4 nM; on EGFR L858R/T790M/C797S (setting [12]) it was 0.3 nM; on EGFR del19/T790M/C797S (setting [13]) it was 1 nM. Further, the IC50 is 1.7 nM at EGFR del19/T790M/C797S (setting [15]); 2.3 nM on EGFR del19/C797S (setting [14]); 6.5 nM against EGFR del19/C797S (IC50 del19/C797S, 100 μM ATP).
As for `CN(C)C[C@H]1CC[C@@H](Nc2cc(Nc3ccnc(-c4cnn(S(=O)(=O)C5CC5)c4)n3)ncc2-c2ccc(S(C)(=O)=O)cn2)CC1` [Example 159, N^6′-(2-(1-(Cyclopropylsulfonyl)-1H-pyrazol-4-yl)pyrimidin-4-yl)-N^4′-((1s,4s)-4-((dimethylamino)methyl)cyclohexyl)-5-(methylsulfonyl)-[2,3′-bipyridine]-4′,6′-diamine], the IC50 was determined as 323 nM against EGFR wildtype (IC50 WT, 100 μM ATP); 1.2 nM against EGFR L858R/C797S (IC50 L858R/C797S, 100 μM ATP); 0.1 nM on EGFR L858R/T790M/C797S (setting [16]); 0.1 nM against EGFR del19/T790M/C797S (setting [15]); 0.2 nM on EGFR del19/C797S (IC50 del19/C797S, 100 μM ATP).
As to `O=S(=O)(C1CC1)n1cc(-c2nccc(Nc3cc(N[C@H]4CCC[C@H](CO)C4)c(-c4ccc(CC(F)(F)F)cn4)cn3)n2)cn1` [Example 222, ((1S,3S)-3-((6′-((2-(1-(Cyclopropylsulfonyl)-1H-pyrazol-4-yl)pyrimidin-4-yl)amino)-5-(2,2,2-trifluoroethyl)-[2,3′-bipyridin]-4′-yl)amino)cyclohexyl)methanol], the IC50 at EGFR wildtype (setting [10]) is 37.4 nM; at EGFR wildtype (IC50 WT, 100 μM ATP), above 10000 nM; on EGFR L858R/C797S (setting [11]) it was 11.7 nM; at EGFR L858R/C797S (IC50 L858R/C797S, 100 μM ATP), 296 nM; on EGFR L858R/T790M/C797S (setting [12]), 1.7 nM; on EGFR L858R/T790M/C797S (setting [16]), 2 nM. Besides, the IC50 on EGFR del19/T790M/C797S (setting [13]) is 3.9 nM; at EGFR del19/T790M/C797S (setting [15]) it was 3.4 nM; at EGFR del19/C797S (setting [14]) it was 8.9 nM; at EGFR del19/C797S (IC50 del19/C797S, 100 μM ATP), 16.8 nM.
Turning to `CC(C)(O)[C@H]1CC[C@@H](Nc2cc(Nc3ccnc(-c4cnn(S(=O)(=O)C5CC5)c4)n3)ncc2-c2ccc(OCCN3CCC3)cn2)CC1` [Example 217, 2-((1s,4s)-4-((5-(2-(Azetidin-1-yl)ethoxy)-6′-((2-(1-(cyclopropylsulfonyl)-1H-pyrazol-4-yl)pyrimidin-4-yl)amino)-[2,3′-bipyridin]-4′-yl)amino)cyclohexyl)propan-2-ol], the IC50 is 0.8 nM on EGFR wildtype (setting [10]); 118 nM against EGFR wildtype (IC50 WT, 100 μM ATP); 0.2 nM at EGFR L858R/C797S (setting [11]); 0.4 nM against EGFR L858R/C797S (IC50 L858R/C797S, 100 μM ATP); 0.3 nM on EGFR L858R/T790M/C797S (setting [12]); 0.3 nM against EGFR L858R/T790M/C797S (setting [16]). Moreover, the IC50 was 0.8 nM at EGFR del19/T790M/C797S (setting [13]); 0.7 nM against EGFR del19/T790M/C797S (setting [15]); 0.2 nM at EGFR del19/C797S (setting [14]); 0.3 nM on EGFR del19/C797S (IC50 del19/C797S, 100 μM ATP).
Consider `CN1CCN(c2ccc(-c3cnc(Nc4ccnc(-c5cnn(S(=O)(=O)C6CC6)c5)n4)cc3N[C@H]3CC[C@@](C)(O)CC3)nn2)CC1` [Example 46, (1s,4s)-4-((2-((2-(1-(Cyclopropylsulfonyl)-1H-pyrazol-4-yl)pyrimidin-4-yl)amino)-5-(6-(4-methylpiperazin-1-yl)pyridazin-3-yl)pyridin-4-yl)amino)-1-methylcyclohexan-1-ol], for which the IC50 was above 10000 nM against EGFR wildtype (setting [1]); 0.9 nM on EGFR wildtype (setting [2]); 0.9 nM against EGFR L858R/C797S (setting [3]); 0.2 nM at EGFR L858R/C797S (setting [4]); 0.2 nM against EGFR L858R/T790M/C797S (setting [5]); 0.1 nM on EGFR L858R/T790M/C797S (setting [6]). Also, the IC50 on EGFR del19/T790M/C797S (setting [7]) came to 0.3 nM; at EGFR del19/T790M/C797S (setting [17]), 0.2 nM; against EGFR del19/C797S (setting [8]) it was 0.4 nM; on EGFR del19/C797S (setting [9]), 0.2 nM.
As to `CN1CCC(Oc2cnc(-c3cnc(Nc4ccnc(-c5cnn(S(=O)(=O)C6CC6)c5)n4)cc3N[C@H]3CC[C@@H](CO)CC3)cn2)CC1` [Example 146, ((1s,4s)-4-((2-((2-(1-(Cyclopropylsulfonyl)-1H-pyrazol-4-yl)pyrimidin-4-yl)amino)-5-(5-((1-methylpiperidin-4-yl)oxy)pyrazin-2-yl)pyridin-4-yl)amino)cyclohexyl)methanol], the IC50 stood at 0.8 nM on EGFR wildtype (setting [2]); 0.1 nM at EGFR L858R/C797S (setting [4]); 0.02 nM on EGFR L858R/T790M/C797S (setting [6]); 0.1 nM at EGFR del19/T790M/C797S (setting [17]); 0.3 nM at EGFR del19/C797S (setting [9]).
Regarding `CN(C)CCOc1ccc(-c2cnc(Nc3ccnc(-c4cnn(S(=O)(=O)C5CC5)c4)n3)cc2N[C@H]2CC[C@@H](CO)CC2)nc1` [Example 209, ((1s,4s)-4-((6′-((2-(1-(Cyclopropylsulfonyl)-1H-pyrazol-4-yl)pyrimidin-4-yl)amino)-5-(2-(dimethylamino)ethoxy)-[2,3′-bipyridin]-4′-yl)amino)cyclohexyl)methanol], the IC50 on EGFR wildtype (setting [10]) was determined as 0.2 nM; against EGFR wildtype (IC50 WT, 100 μM ATP) it was 99.2 nM; at EGFR L858R/C797S (setting [11]), 0.1 nM; against EGFR L858R/C797S (IC50 L858R/C797S, 100 μM ATP), 0.6 nM; at EGFR L858R/T790M/C797S (setting [12]), 0.1 nM; at EGFR L858R/T790M/C797S (setting [16]) it was 0.2 nM. For the same compound, the IC50 at EGFR del19/T790M/C797S (setting [13]) amounted to 0.1 nM; against EGFR del19/T790M/C797S (setting [15]), 0.2 nM; at EGFR del19/C797S (setting [14]), 0.1 nM; against EGFR del19/C797S (IC50 del19/C797S, 100 μM ATP), 0.3 nM.
Regarding `CN1CCC(Oc2ccc(-c3cnc(Nc4ccnc(-c5cnn(S(=O)(=O)C6CC6)c5)n4)cc3NC3CCC(F)CC3)nc2)CC1` (stereo not drawn) [Example 254, N^6′-(2-(1-(Cyclopropylsulfonyl)-1H-pyrazol-4-yl)pyrimidin-4-yl)-N^4′-(4-fluorocyclohexyl)-5-((1-methylpiperidin-4-yl)oxy)-[2,3′-bipyridine]-4′,6′-diamine], the IC50 on EGFR wildtype (setting [10]) stood at 0.7 nM; at EGFR L858R/C797S (setting [11]), 0.4 nM; on EGFR L858R/T790M/C797S (setting [12]), 0.02 nM; on EGFR del19/T790M/C797S (setting [13]) it was 0.04 nM; at EGFR del19/C797S (setting [14]) it was 0.1 nM.
